# Assay results as given in patent US10022380B2, “Treatment of solid tumours” (Vivolux AB, priority 2012, dated 2018).
# Columns and labels:
# HCT116 MCS [1] = assay: Pimonidazole staining of sectioned spheroids (indirect measure of respiration/hypoxia); format: cell-based
# Method: (§1) HCT116 colon carcinoma cells were maintained in McCoy's 5A modified medium/10% fetal calf serum at 37° C. in 5% CO2. […] A cell suspension containing 10,000 cells (200 μl) was added to each well of poly-HEMA coated 96 well plates. The wells were then overfilled by adding an additional 170 μl media to acquire a convex surface curvature. Plasticine spacers (3 mm) were placed in the corners of each plate to prevent the lids from touching the media. The plates were then inverted in order to allow the cells to sediment to the liquid/air interface and incubated in gentle shaking. After 24 hrs incubation the plates were returned to normal. First excess media was removed by aspiration and then plasticine spacers. The plates were incubated for 4 days prior to drug treatment.
# MCS produced by the hanging drop method in 96 well plates were fixed in paraformaldehyde, dehydrated, embedded in paraffin and sectioned. Each sample contained 32 MCS (MCS from each 96 well plate were pooled into 3 groups). The sections were deparaffinized with xylene, rehydrated and microwaved, and then incubated overnight with the monoclonal primary antibodies diluted in 1% (weight/volume) bovine serum albumin and visualized by standard avidin-biotin-peroxidase complex technique (Vector Laboratories, Burlingame, Calif., USA). Counterstaining was performed with Mayer's haematoxylin. […]
# monolayer HCT116 cells = assay: Proliferation / viability of monolayer HCT116 cells
# Method: HCT116 MCS were treated for 6 hours with 6 μM CB21, followed by changing to drug-free medium and further incubation. MCS were sectioned and stained for active caspase-3. […] Cells were incubated for 30 minutes with EdU, fixed and analyzed by ArrayScan. […] Cells were seeded at 7,000 or 70,000 per well in 96 well plates in the presence or absence of CB21.
# Cells were fixed and stained for LC3 after drug treatment at the times indicated. […] Cells were treated with 6 μM CB21 and/or 10 μM bafilomycin A and cells were photographed at the times Indicated. […] HCT116 cells were treated with 6 μM CB21 and/or 10 μM chloroquine. Cell proliferation was monitored by calculation of culture confluency.
# HCT116 colon carcinoma cells were maintained in McCoy's 5A modified medium/10% fetal calf serum at 37° C. in 5% CO2. MCS were prepared using a modification of our previously described method (12). A cell suspension containing 10,000 cells (200 μl) was added to each well of poly-HEMA coated 96 well plates. The wells were then overfilled by adding an additional 170 μl media to acquire a convex surface curvature. […] Caspase cleaved keratin-18 (K18-Asp396) was determined using 25 mL medium/extract using the M30 CytoDeath ELISA assay (a variant of the M30-Apoptosense® ELISA (13) developed for in-vitro use (Peviva AB, Bromma, Sweden)). […]
# LC3-I and LC3-II = assay: LC3-I / LC3-II induction in HCT116 (western blot, LC3 staining); format: cell-based; details: for Induction of LC3-I and LC3-II: HCT116 cells
# Method: FIG. 4B: Staining of CB21-treated cells with an antibody to LC3. […] Cells were treated for 6 hours (6 μM), and then incubated further. Protein were extracted and subjected to western blot analysis. […] FIGS. 4F-4H: Morphology of peripheral and core cells visualized by electron microscopy. MCS were treated for 6 hours with 6 μM C21 and incubated further in drug-free medium for the times indicated and sectioned.
# MCSs contain mostly non-proliferating cells. […] The mechanism(s) of action was studied in more detail. […] LC3-II (the PE-conjugated form of LC3) is a protein marker regarded to be most reliably associated with autophagosomes (19).
# HCT116 MCS [2] = format: cell-based
# Method: Cell viability was determined using the acid phosphatase test.
# as §1
# Viability measurements were performed by the acid phosphatase (APH) method described by Friedrich et al. (14). Background activity was subtracted.
# mTOR substrate 4EBP1 = assay: Phosphorylation of mTOR substrate 4EBP1 and of AKT (western blot); details: HCT116 cells
# Method: Cell extract proteins were resolved by Tris-Acetate PAGE gels (Invitrogen, Carlsbad, Calif.) and transferred onto a polyvinylidene difluoride (PVDF) membrane. The membranes were incubated overnight with antibodies, washed and incubated with HRP-conjugated anti-rabbit Ig (Amersham Biosciences, Little Chalfont, UK) for 1 h. Peroxidase activity was developed by SuperSignal West Pico (Pierce Biotechnology, Rockford, Ill.) according to manufacturer's instructions.
structure (smiles),measurement,setting,value
"N#CC(C#N)=NNc1cccc(Cl)c1 [CCCP, carbonylcyanide-3-chlorophenylhydrazone]",Pimonidazole positive area (%),"HCT116 MCS [1]; 10 μM, 6 h",79.9%
"CCN(CC)CCCC(C)Nc1ccnc2cc(Cl)ccc12 (stereo not drawn) [CQ, Chloroquine]",proliferation / cell death of monolayer HCT116 cells,"monolayer HCT116 cells; 10 μM chloroquine, 6 μM CB21, culture confluency",no effect
Cn1c(=O)n(-c2ccc(C(C)(C)C#N)cc2)c2c3cc(-c4cnc5ccccc5c4)ccc3ncc21 [NVP-BEZ235],Induction of LC3-I and LC3-II,LC3-I and LC3-II; 6 h,weak induction
same,Induction of LC3-I and LC3-II,LC3-I and LC3-II; 24 h,no induction observed
same,viability of the cells in the core of the MCS,HCT116 MCS [2],did not affect the viability
same,4EBP1 phosphorylation,mTOR substrate 4EBP1,decrease
CO[C@H]1C[C@@H]2CC[C@@H](C)[C@@](O)(O2)C(=O)C(=O)N2CCCC[C@H]2C(=O)O[C@H]([C@H](C)C[C@@H]2CC[C@@H](O)[C@H](OC)C2)CC(=O)[C@H](C)/C=C(\C)[C@@H](O)[C@@H](OC)C(=O)[C@H](C)C[C@H](C)/C=C/C=C/C=C/1C [Rapamycin],Pimonidazole positive area (%),"HCT116 MCS [1]; 10 nM, 5 h",42.2%
CO/C1=C\C(C)=C\[C@@H](C)[C@@H](O)[C@@H](C)C/C(C)=C/C=C/[C@H](OC)[C@@H]([C@@H](C)[C@@H](O)[C@H](C)[C@@]2(O)C[C@@H](O)[C@H](C)[C@@H](C(C)C)O2)OC1=O [bafilomycin A],appearance of large cytoplasmic LC3-II positive vesicles,"LC3-I and LC3-II; HCT116 cells treated with CB21, 10 μM Bafilomycin A",suppresses the appearance of large cytoplasmic LC3-II positive vesicles
same,time at which cytotoxicity was observed,"monolayer HCT116 cells; HCT116, 10 μM bafilomycin A, 6 μM CB21",~72 h
